According to patent US11911358B2, “Dicarboxylic acid esters for inducing an analgesic effect” (NEW FRONTIER LABS, LLC, priority 2020, dated 2024):

Assays:
[1] = test system: EpiDerm tissues; test: EpiDerm bioassay: cytokine, chemokine and growth factor levels by multiplexed immunoassay after croton oil insult; type: cell-based, human; conditions: 24 hours; for G-CSF, percentage of the control / GM-CSF, percentage of the control / IL-1ra, percentage of the control / IL-10, percentage of the control / IL-13, percentage of the control / Leptin, percentage of the control / PGE2, percentage of the control / IL-4, percentage of the control: EpiDerm + 0.1% croton oil, percent difference vs croton oil alone; for IL-4, percentage of the control: 25% azelaic acid Na salt, 1% salicylic acid Na salt, 1% green tea extract, 1 μg/mL doxycycline hyclate (doxorubicin), 1% 4-ethoxybenzaldehyde, 0.025% all-trans retinoic acid
Description: Multiplexed immunoassays: […] Izbicka, et al., Cancer Genomics Proteomics (2012) 9(1):27-35]. Multiplexed immunoassays were performed using Luminex 100 IS System (Luminex Corporation, Austin, TX). Analyte concentrations were calculated from the standard curves using Bio-Plex Manager 4.1.1 (Bio-Rad Laboratories, Hercules, CA). EpiDerm Bioassays: The EpiDermTM 3-Dimensional Skin Model was purchased from MatTek Corporation (Ashland, MA). […] Conditioned media were collected, the remaining cells were homogenized on ice in the presence of protease and phosphatase inhibitors, and the lysates were clarified by centrifugation. The media and cell lysates were snap frozen at -70° C. Proteins were resolved by gel electrophoresis and visualized in immunoblots with human-specific antibodies to inducible nitric oxide synthase (iNOS), S-nitrosocysteine, and superoxide dismutase 2 (all from Abcam, Cambridge, MA). […] Croton oil (a chemical irritant) was used as a control. The results are shown as percent difference in marker levels in tissues treated with the test articles and those treated with croton oil alone. (Table 1). […] This pattern of tandem upregulation of examined markers in concert with downregulation of PGE2 was unique for DEA and was not observed with any other test article.

[2] = test system: PBMCs; test: Membrane fluidity measurement (pyrenedecanoic acid excimer fluorescence); type: cell-based, human; conditions: 0.5% DEA
Description: Isolation of human peripheral blood mononuclear cells: Fresh human peripheral blood mononuclear cells (PBMC) specimens were obtained from healthy volunteers. The blood was collected into BD Vacutainer CPT Cell Preparation Tubes (Beckton Dickinson, Franklin Lakes, NJ) and centrifuged at 1,500×g at room temperature and PBMCs were isolated according to supplier's protocol. Cell counts and viability assessment using trypan blue exclusion were measured using hemocytometer. Membrane fluidity measurements: Membrane fluidity was measured using Membrane Fluidity Kit (PN […], Marker Gene Technologies, Eugene, OR). […] The fluorescence of the excimer (excitation at 355 nm, emission at 460 nm) was corrected for the monomer (excitation at 355 nm, emission at 400 nm). The inventors of the present disclosure have shown that altered membrane protein function with a U-shaped dose response. […] Physiological consequences of DEA membrane fluidizing activity were further investigated in human plasmacytoid dendritic cells, which express multiple PRRs including TLRs, NOD and dectin-1 receptors. Human plasmacytoid dendritic cells were stimulated with the receptor agonists alone or in combination with 0.5% DEA.

[3] = test system: EpiDerm tissues; test: EpiDerm croton oil irritant toxicity: proliferation and viability assays, microscopic inspection; type: cell-based, human; conditions: 25% DEA, 0.1% croton oil
Description: Cell proliferation and cytotoxicity assays: CellTiter 96 Non-Radioactive Cell Proliferation Assay (MTT), CellTiter 96 AQueous One Solution Cell Proliferation Assay (MTS) and CellTiter-Glo Luminescent Cell Viability (ATP) kits were purchased from Promega (Madison, WI). Protein concentration was measured using Micro BCA protein assay kit (Pierce Biotechnology, Rockford, IL). EpiDerm Bioassays: The EpiDerm™ 3-Dimensional Skin Model was purchased from MatTek Corporation (Ashland, MA). […] Conditioned media were collected, the remaining cells were homogenized on ice in the presence of protease and phosphatase inhibitors, and the lysates were clarified by centrifugation. The media and cell lysates were snap frozen at −70° C. Proteins were resolved by gel electrophoresis and visualized in immunoblots with human-specific antibodies to inducible nitric oxide synthase (iNOS), S-nitrosocysteine, and superoxide dismutase 2 (all from Abcam, Cambridge, MA). […] Croton oil (a chemical irritant) was used as a control. The results are shown as percent difference in marker levels in tissues treated with the test articles and those treated with croton oil alone. (Table 1). […] This pattern of tandem upregulation of examined markers in concert with downregulation of PGE2 was unique for DEA and was not observed with any other test article.

[4] = test system: human plasmacytoid dendritic cells; test: ATP release and signaling with PRR agonists in plasmacytoid dendritic cells; type: cell-based; conditions: 0.5% DEA, 24 hours
Description: Cell proliferation and cytotoxicity assays: CellTiter 96 Non-Radioactive Cell Proliferation Assay (MTT), CellTiter 96 AQueous One Solution Cell Proliferation Assay (MTS) and CellTiter-Glo Luminescent Cell Viability (ATP) kits were purchased from Promega (Madison, WI). Protein concentration was measured using Micro BCA protein assay kit (Pierce Biotechnology, Rockford, IL).
Pathogen-associated molecular pattern receptor agonist studies: PRR agonist kits; human Toll-like receptor (TLR1-9; n=9 agonists), nucleotide oligomerization domain (NOD) NOD1/NOD2 (n=10 agonists, denoted n1, n2, . . . , n10) and dectin-1 (a single agonist) were purchased from InvivoGen, San Diego, CA Plasmacytoid human dendritic cells (MatTek Corporation, Ashland, MA) were diluted to 1.6×10^5 cells/mL and incubated with the agonists at the concentrations in the middle ranges recommended by the supplier in the absence of DEA or with 0.5% DEA for 24 hours. The levels of measured analytes were normalized to the numbers of viable cells.
The inventors of the present disclosure have shown that altered membrane protein function with a U-shaped dose response. At the concentration of 0.5% DEA increased membrane fluidity by 18% above the cholesterol control level. Physiological consequences of DEA membrane fluidizing activity were further investigated in human plasmacytoid dendritic cells, which express multiple PRRs including TLRs, NOD and dectin-1 receptors. […]
Human plasmacytoid dendritic cells (1.6×10^5/ml) were exposed to 20 different PRR agonists alone at the concentrations within physiological ranges of each agonist or in the presence of 0.5% DEA for 24 hours. The results are expressed as the ratios of secreted ATP from the cells treated with the PRR receptor agonists and DEA (treatment groups) to the levels of ATP secreted by the cells treated with the agonists alone (control groups). […] Extracellular levels were measured, and the results were expressed as the ratios of released ATP from the cells+receptor agonist+DEA to the ATP from the cells+receptor agonist alone.

[5] = test system: human PBMCs; type: cell-based; conditions: 0.5% DEA, confocal microscopy (FIG. 3)
[6] = test system: Balb/c mice; test: Hot plate test, hind limb response latency; type: in vivo; conditions: 100% (neat) DEA topical to hind limb 5 minutes before test, 42° C., male mice; vs untreated control, p=0.03
Description: In vivo studies: Animal studies and all procedures were performed in compliance with the Animal Welfare Act Regulations (9 CFR 3) and the NIH guidelines for the care and use of laboratory animals at New Frontier Labs LLC, San Antonio, TX Both male and female Balb/c mice 8-10 weeks old weighing approximately 25 g were purchased from Taconic Farms (Hudson, NY). Animals were acclimatized for at least 72 hours after delivery. Prior to experiments the animals were randomized into treatment and control groups. For the assessment of nociceptive effect of DEA, only male mice were used (n=8 per group). The hot plate test was performed at a constant temperature of 42° C. as described in S. Hunskaar, et al., Eur. J. Pharmacol. 1985; 111(2):221-6, which is incorporated herein by reference. DEA was administered neat (100%) or diluted in ethanol (vehicle) to the hind limb. The treatments were administered 5 minutes prior to the heat test. The time between the heat exposure to the first incidence of animal licking the hind paw was measured with a stopwatch.
Statistical analysis: Statistical analysis was done using Student t statistic; p values <0.05 were considered significant. All samples/data were included in the analysis. Continuously distributed outcomes were summarized with the mean and standard deviation. […]

Compound | G-CSF, percentage of the control [1] | GM-CSF, percentage of the control [1] | IL-1ra, percentage of the control [1] | IL-10, percentage of the control [1] | IL-13, percentage of the control [1] | Leptin, percentage of the control [1] | PGE2, percentage of the control [1] | IL-4, percentage of the control ([1]; 25% DEA) | increase of membrane fluidity above the cholesterol control level [2] | effect on pro-inflammatory markers among 57 examined cytokines, chemokines and growth factors ([1]; 25% DEA, 0.1% croton oil) | tissue integrity as evaluated by microscopic inspection [3] | croton oil irritant toxicity in proliferation and viability assays ([3]; 24 hours) | effect on ATP signaling with NOD receptor ligands n9 and n10 [4] | cellular signaling from all examined PRR ([4]; TLR, NOD, dectin-1 agonists) | ratio of released ATP, cells+receptor agonist+DEA to cells+receptor agonist alone ([4]; all PRR agonists except NOD ligands n9 and n10 (FIG. 1)) | foci of enhanced cholera toxin B subunit fluorescence on plasma membranes [5] | decrease of heat sensitivity (hot plate response latency) [6]
O=C(O)CCCCCCCC(=O)O [Azelaic acid, azelaic acid] | −100% | −16% | 18% | 152% | −4% | 41% | −1% | 40% |  |  |  |  |  |  |  |  | 
COc1cccc2c1C(=O)c1c(O)c3c(c(O)c1C2=O)C[C@@](O)(C(=O)CO)C[C@@H]3O[C@H]1C[C@H](N)[C@H](O)[C@H](C)O1 [Doxorubicin, doxorubicin] | 0% | −3% | 15% | 214% | −38% | 116% | −2% | 80% |  |  |  |  |  |  |  |  | 
CCOC(=O)CCCCCCCC(=O)OCC [DEA, diethyl azelate] | 561% | 280% | 33% | 200% | 112% | 51% |  | 600% | 18% | downregulated most of the pro-inflammatory markers | protected tissue integrity | nullified croton oil irritant toxicity | no apparent effect | downregulated cellular signaling from all examined PRR | < 1 | no foci of enhanced fluorescence were detectable | 33%
O=C(O)c1ccccc1O [Salicylic acid, salicylic acid] | 640% | −7% | 15% | 257% | −46% | 202% | 5% | 40% |  |  |  |  |  |  |  |  | 
CCOc1ccc(C=O)cc1 [4-ethoxybenzaldehyde] | 340% | −26% | 34% | 471% | 34% | 39% | 4% | 80% |  |  |  |  |  |  |  |  | 
CC1=C(/C=C/C(C)=C/C=C/C(C)=C/C(=O)O)C(C)(C)CCC1 [Retinoic acid, all-trans retinoic acid] | 360% | −39% | 20% | 369% | −19% | 36% | 4% | 100% |  |  |  |  |  |  |  |  | 
